The record followed here is patent US20050031537A1, “Multifunctional COX-2 inhibitors” (priority 2002, published 2005).

For assay [1], the system named is PTEN. Kind of assay: Western and Northern blotting for expression of PTEN (test (e)). The format is cell-based, human. Conditions: positive in 184B5, 184B5/HER, HCA7, HCT116, SKBR3 and BT474 cells. The method, then: We turn now to criterion (e), i.e., at least 50% increase in expression of PTEN.
PTEN is a tumor suppressor that inhibits cell proliferation and induces programmed cell death. PTEN (also know as MMAC-1 or TEP-1) is described in Yamada, K. M., et al, Journal of Cell Science 114, 2375-2382, the whole of which is incorporated herein by reference.
Western blotting and Northern blotting techniques were used to evaluate the expression of PTEN. The expression of PTEN was evaluated in HCA7, HCT116, SKBR3, 184B5/HER, 184B5 and BT474 cells. 5×10^6cells were used to treat either vehicle alone or the test compound. The Western blotting analysis was performed as described above except anti-PTEN antibody was used to probe the blot. The antibody was obtained from Santa Cruz Biotechnology, Inc. CA. Northern blotting for PTEN was performed as described above and cDNA for PTEN as described in Tamura, M., et al, Science 5; 280 (5369):1614-1617 (1998), was used as a probe.

In assay [2] the test system is HPV16 oncoproteins E6 and E7. Description: Western and Northern blotting for HPV16 oncoproteins E6 and E7 (test (d)). The format is cell-based, human papillomavirus. Conditions: positive in CaSki and SiHa cells. The method, then:
We turn now to the criterion (d), that is at least 50% downregulation of expression of HPV16 oncoproteins E6 and E7.
Protein E6 and E7 which are expressed by HPV16 are believed to play a major role in carcinogenesis.
Western blotting and Northern blotting techniques were used to evaluate the expression of HPV E6 and E7 proteins. The cell lines used for the study were CaSKi and SiHa. The cells were treated with the test compound and cell lysate was obtained as described above and subjected to Western blotting analysis. The Western blotting analysis was performed as described above except anti-HPV 16 E7 antibody was used to probe the blot. The antibody was obtained from Santa Cruz Biotechnology, Inc. CA. For Northern blotting, total cellular RNA was isolated from cell monolayers using an RNA isolation kit from QIAGEN Inc. after treatment with the test compound. 10 μg of total cellular RNA per lane were electrophoresed in a formaldehyde-containing 1.2% agarose gel and transferred to nylon-supported membranes. After baking, membranes were prehybridized overnight in a solution containing 50% formamide, 5×sodium chloride-sodium phosphate-EDTA buffer (SSPE), 5×Denhardt's solution, 0.1% SDS and 100 μg/ml single-stranded salmon sperm DNA and then hybridized for 12 h at 42° C. with radiolabeled cDNA probes for human HPV16 E6 or E7 cDNAs and 18S rRNA. E6 and E7 (as described in Woodworth, C. D., Cancer Res. 16, 4397-4402 (2000)) and 18S rRNA probes were labeled with [^32P]-CTP by random priming. After hybridization, membranes were washed twice for 20 min at room temperature in 2×SSPE-0.1% SDS, twice for 20 min in the same solution at 55° C., and twice for 20 min in 0.1×SSPE-0.1% SDS at 55° C. Washed membranes were then subjected to autoradiography.

The test system of assay [3] is PPRE luciferase. Kind of assay: PPRE luciferase activation, transient transfection reporter assay (test (a)). Type of assay: cell-based, human. Conditions: positive in 184B5, 184B5/HER, HCA7, HCT116, SKBR3 and BT474 cells; 24 h treatment. The source says:
We turn now to criterion (a), that is activation of PPRE luciferase by at least 100%. PPRE-luciferase refers to a DNA construct containing the peroxisome proliferator activated receptor (PPAR) binding element joined to luciferase. Cells are transfected with PPRE-luciferase DNA. Ligands of PPAR induce luciferase activity. The ability of a test compound to stimulate PPRE-luciferase signifies that the test compound activates PPAR-mediated gene transcription. PPRE means peroxisome proliferator response element and the method by which PPRE-luciferase is constructed is described in Schoonjans, K., et al, J. Biol. Chem. 270, No. 33, 19269-19276 (Aug. 18, 1995). Use of PPRE-luciferase in a transient transfection to measure increase in promoter activity is disclosed in Subbaramaiah, K. et al, J. Biol. Chem. 270, No. 15, 12440-12448 (Apr. 13, […]).
For each well, 1.8 μg of PPRE3-tk-luciferase construct plasmid DNA (described in Forman, B. M., et al, Cell 83, 803 (1995)) plus 0.2 μg of pSV-β-galactosidase were introduced into cells using 8 μg of LipofectAMINE as per the manufacturer's instructions (Invitrogen, CA). After 7 h of incubation, the medium was replaced with basal medium. After transfection, cells were treated with test compound for 24 h. Reporter activities which include luciferase and β-galactosidase were measured in cellular extract 24 h later. Six wells were used for each of the conditions. Luciferase activity represents data that have been normalized with β-galactosidase.
The luciferase assay was performed as per the BD Pharmingen assay reagents. The Enhanced Luciferase Assay Kit provides a firefly luciferase substrate formulation (Substrates A and B) and cell lysis buffer intended for use in measuring luciferase expressed by transfected cells. Media from cell culture plates was removed and rinsed twice with phosphate buffered saline. Enough 1X cell lysis buffer was added to cover cells and incubated at room temperature for 15-20 min. Cells were dislodged by scraping and transferred to microcentrifuge tubes. […] 20-100 μl cell extract was placed into an assay cuvette. One automatic injector type luminometer is used for assay. Manually 100 μl of Substrate A was added to the assay cuvette and automatically 100 μl of Substrate B was injected. Measurements were performed using a luminometer, for a measurement time of 10 seconds.
The β-galactosidase assay was performed as follows:
50 μl of cell lysate from above was incubated with 50 μl of o-nitrophenyl-β-D-galactoside (ONPG; 4 mg/mL) in Z buffer, (Na2HPO4.7H2O (0.06M), NaH2PO4.H2O (0.04M), 1M KCl (0.01M), 1M MgSO4 (0.001M), β-mercaptoethanol (BME) (0.05M) pH 7.0). The reaction was stopped after sufficient yellow color has developed. The yellow color developed is measured at A420 […].
On the technique in general: A reporter such as luciferase makes a cellular process visible.

The test system of assay [4] is tcf/lef/β-catenin-mediated promoter activation. Description: TOPflash/FOPflash reporter assay for tcf/lef/β-catenin-mediated promoter activation (test (f)). The format is cell-based, human. Conditions: positive in 184B5, 184B5/HER, HCA7, HCT116, SKBR3 and BT474 cells; 24 h. The source says:
Tcf/lef/β-catenin is a transcription factor complex that has been implicated in the regulation of genes involved in carcinogenesis. Increased tcf/lef/β-catenin-mediated gene expression has been linked to pathogenesis of colon cancer. Tcf/lef/β-catenin is described in Barker, N., et al, Adv. Cancer Res. 77, 1-24 (2000), the whole of which is incorporated herein by reference.
Cells (cell lines were 184B5, 184B5/HER, HCA7, HCT116, SKBR3 and BT474) were split into 6 well dishes and the next day were transiently transfected using 8 μg of LipofectAMlNE as per the manufacturer's instructions (Invitrogen, CA). 1.8 μg/dish of the wildtype Tcf/Lef reporter plasmid TOP flash or the mutant plasmid FOP flash was transfected into the cells and 0.2 μg of pSV-β-galactosidase. FOPflash differs from TOPflash by the mutation of its Tcf binding sites and serves to differentiate Tef/-catenin-mediated signaling from background (Upstate Biotechnology, Inc.). Cells were incubated overnight and were treated for 24 hours with either vehicle or test compound. Luciferase activity in the extracts was measured as described above and was corrected for background by subtraction of FOP-FLASH values from corresponding TOP-FLASH values.

With `COc1ccc2c(c1)c(CC(=O)Nc1cccnc1)c(C)n2C(=O)c1ccc(Cl)cc1` [Indomethacin Analog 4, N-(3-pyridyl)-indomethacin amide], the “Test (e) at least 50% increase in expression of PTEN” value in assay [1] was “+ (A plus sign in the table indicates a positive result, that is meeting the test for each cell line as indicated above as providing a positive result)”. In addition, the “Test (d) at least 50% downregulation of expression of HPV16 oncoproteins E6 and E7” value in assay [2] was “+ (A plus sign in the table indicates a positive result, that is meeting the test for each cell line as indicated above as providing a positive result)”. In addition, in assay [3], the “Test (a) activation of PPRE luciferase by at least 100%” value is “+ (A plus sign in the table indicates a positive result, that is meeting the test for each cell line as indicated above as providing a positive result)”. The “Test (f) at least 50% inhibition of tcf/lef/β-catenin-mediated promoter activation” value in assay [4] is given as “+ (A plus sign in the table indicates a positive result, that is meeting the test for each cell line as indicated above as providing a positive result)”.
